The values that follow come from US20230333087A1, “METHODS FOR MONITORING PATIENT RESPONSE TO TREATMENT OF RETINAL OXIDATIVE DISEASES” (BioJiva LLC, priority 2022, published 2023).

Experiment [1] deals with retinal structure. The experiment can be described thus: Toluidine blue staining of plastic sections, retinal histology and thickness. It is filed as in vivo, C57BL/6J mice. As for the experimental part: Electroretinography was conducted on mice fed with D-DHA or natural DHA for 4 weeks to evaluate retinal function. […] Thus, using this measure, incorporation of D-DHA had no impact on retinal function (FIG. 7A). […] Toluidine blue staining was performed on plastic sections to examine retinal histology.
Plastic sections (3 µm) were cut in the sagittal plane. The third eyelid was used for the orientation when embedding eye cups. Toluidine blue staining on plastic sections was used to evaluate retinal morphology.

The subject of experiment [2] is iron-induced geographic atrophy. The experiment can be described thus: Iron-induced geographic atrophy development, imaging 4 weeks after injection. It counts as in vivo, C57BL/6J mice. The following applies: 4 weeks diet before and 4 weeks after iron injection. From the text: To evaluate whether D-DHA could protect against geographic atrophy in this model, mice were continued on respective diets for 4 weeks after iron or saline injection. […] This corresponded to photoreceptor (white arrows) and RPE degeneration (black arrows) in OCT scans (FIG. 10C). […] Taken together, […] retinal D-DHA provided long-term protection against the geographic atrophy development induced by iron.
Adult male wild-type C57BL/6J mice (Stock No.000664, Jackson Labs, Bar Harbor, ME, USA) were housed in standard conditions under cyclic light (12 h:12 h light-dark cycle). Mice had ad libitum access to water and food. Beginning at 2 mo of age, mice were placed on the AIN93G diet described above, supplemented with 0.25% D-DHA or DHA (control diet) for 1 week, 2 weeks, 3 weeks, or 4 weeks prior to the intravitreal injection. Mice were given an intravitreal injection of 1 µl 0.5 mM ferric ammonium citrate diluted in 0.9% NaCl (saline) (MP Biomedicals LLC, Santa Ana, CA) or
Mice were given general anesthesia and placed on a platform. Pupils were dilated with 1% tropicamide saline solution (Akorn, Inc., Lake Forest, IL). Optical coherence tomography (OCT) imaging was performed for visualization of the retinal structure by using a Bioptigen
Envisu (R2200, Bioptigen Inc., Durham, NC, USA) coupled to a broadband LED light source (T870-HP, Superlum Diodes, Ltd, Ireland). […]

Regarding `[2H]C([2H])(/C=C\CC)/C=C\C([2H])([2H])/C=C\C([2H])([2H])/C=C\C([2H])([2H])/C=C\C([2H])([2H])/C=C\CCC(=O)OCC` [D-DHA, 6,6,9,9,12,12,15,15,18,18-D10-(4Z,7Z,10Z,13Z,16Z, 19Z)-docosa 4,7,10,13,16, 19-hexaenoic acid ethyl ester], the “retinal structure (toluidine blue histology)” value in experiment [1] (1 week after iron injection) is recorded as “complete protection”. The “total retina thickness and outer retina thickness” value in experiment [1] (IVT iron injected eyes, 1 week after injection) is “significantly protected and not different from saline injected eyes”. In experiment [2], the geographic atrophy development entry is “fully protected”.
